Test results taken from patent publication US20140228286A1, “SPECIFIC PDE4B-INHIBITORS FOR THE TREATMENT OF DIABETES MELLITUS” (BOEHRINGER INGELHEIM INTERNATIONAL GMBH, priority 2013, published 2014).

What was measured:
Sprague Dawley (SD) rats = assay: Oral glucose tolerance test in overnight fasted male Sprague Dawley rats; format: in vivo, rat; conditions: 60 min before oral glucose load 2 g/kg, versus vehicle control
Protocol: An oral glucose tolerance test is performed in overnight fasted male Sprague Dawley (SD) rats (RjHan:SD), with a weight of 320-350 g. A pre-dose blood sample is obtained by tail bleed. Blood glucose is measured with a glucometer, and the animals are randomized for blood glucose (n=6/group). Subsequently, the groups receive a single oral administration of either vehicle alone (0.5% aqueous hydroxyethyl-cellulose) or vehicle containing one of the PDE4 inhibitors. The animals receive an oral glucose load (2 g/kg) 60 min after compound administration. Blood glucose is measured in tail blood 15 min, 30 min, 60 min, 90 min, and 120 min after the glucose challenge. Glucose excursion is quantified by calculating the reactive glucose AUC (area under the curve). The data are presented as mean±SEM (standard error of mean). The two-sided unpaired Student t-test is used for statistical comparison of the control group and the active groups.
“Cpd. A” is the PDE4 inhibitor Example 1.35 at a dose of 1 and 3 mg/kg. “Cpd. B” is the PDE4 inhibitor Example 1.46 at a dose of 1 and 3 mg/kg. P values versus control are indicated by symbols above the bars (*, p<0.05). Cpd. A (=Example 1.35) reduces glucose excursion by 13.2 (p=0.09) and 15.0% (p=0.11) with a dose of 1 and 3 mg/kg, respectively. Cpd. […] Cpd.

PDE4B = molecular target: T1, PDE4B (Homo sapiens, UniProt Q07343); assay: PDE4B Scintillation Proximity (SPA) Assay; format: biochemical; conditions: PDE4B active site fragment amino acids 152-484; [3H]cAMP; 30° C., one hour; read-out: Experimentally determined IC50-value for PDE4B inhibition
T1 construct: active site fragment comprising the amino acids 152-484
Description: The IC50-values of the compounds of the invention (Examples 1.1 to 1.47) with respect to their PDE4B-inhibiting ability have been determined with a Scintillation Proximity (SPA) Assay (GE Healthcare, No. TRKQ7090). The Scintillation Proximity (SPA) Assay is based on the detection of the different affinities of the cyclic 3′-5′adenosine monophosphate (cAMP, low affinity) and the linear 5′-adenosine monophosphate (AMP, high affinity) to yttrium-silicate-scintillator beads. The cAMP-specific phosphodiesterase (PDE) PDE4B cleaves the 3′-phosphodiester bond of the tritium-labelled-[^3H]cAMP to the [^3H]5′-AMP. This [^3H]5′-AMP associates with the scintillator beads because of their higher affinity and causes scintillations (light flashes) which can be measured in a Wallac Microbeta Scintillation Counter.
10 μl of a [^3H]cAMP-solution (0.05 μCi in H2O, 10-30 Ci/mmol) are added to 89 μl of a PDE4B-enzyme-solution (active site fragment comprising the amino acids 152-484; 0.15-0.18 ng) in assay buffer (50 mM Tris HCl pH 7.5; 8.3 mM MgCl2; 1,7 mM ethylene glyclol tetraacetic acid (EGTA); 0.25 mg/ml bovine serum albumin (BSA)) and this mixture is incubated at 30° C. for one hour
a) without the compound to be tested (in the presence of 1 μl dimethylsulfoxide (DMSO), corresponding to 1% DMSO) and b) in the presence of the compound to be tested in a concentration of 125 μM, 25 μM, 5 μM, 1 μM, 200 nM, 40 nM, 8 nM, 1.6 nM, 0.32 nM, 0.064 nM, 0.0128 nM (dilution series in 5er-steps beginning from 125 μM until 0.0128 nM, in the presence of 1% DMSO).
After this incubation the reaction is stopped by the addition of 50 μl of bead-solution (500 mg beads/35 ml H2O, 18 mM zinc sulfate). In the following 45 minutes the beads have the opportunity to form a sediment. After that the scintillations are measured in the scintillation counter. If the tested compound is able to inhibit the enzymatic activity of the PDE4B-enzyme, less [^3H]AMP depending on the concentration of the tested compound is produced and less scintillations are measurable. […] The IC50-value stands for the compound concentration at which the PDE4B enzyme activity is inhibited to a half maximal value. Therefore the lower the IC50-value is the better is the PDE4B inhibition.

T1 sequence (Q07343 324-656): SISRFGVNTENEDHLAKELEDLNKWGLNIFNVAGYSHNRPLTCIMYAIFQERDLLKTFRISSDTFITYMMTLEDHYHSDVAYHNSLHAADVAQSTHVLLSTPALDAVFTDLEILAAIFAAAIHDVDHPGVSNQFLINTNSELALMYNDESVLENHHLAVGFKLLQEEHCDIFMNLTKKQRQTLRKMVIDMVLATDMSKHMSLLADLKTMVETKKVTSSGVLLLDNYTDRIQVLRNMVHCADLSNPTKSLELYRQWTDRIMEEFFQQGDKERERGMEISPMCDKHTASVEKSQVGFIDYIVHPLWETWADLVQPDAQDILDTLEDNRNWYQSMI

| IC50 (PDE4B) | Structure (SMILES) | reduces glucose excursion (reactive glucose AUC) (Sprague Dawley (SD) rats; single oral dose 1 mg/kg) | reduces glucose excursion (reactive glucose AUC) (Sprague Dawley (SD) rats; single oral dose 3 mg/kg) |
| --- | --- | --- | --- |
| 3.9 nM | [O-][S+]1CCc2nc(N3CCC(Oc4ccc(Cl)cc4)CC3)nc(NC3CCOCC3)c21 (centres unmarked) [Example 1.35, {2-[4-(4-chlorophenoxy)-piperidin-1-yl]-5-oxo-6,7-dihydro-5H-5λ^4-thieno[3,2-d]pyrimidin-4-yl}-(tetrahydropyran-4-yl)-amine] | 13.2% | 15.0% |
|  | [O-][S+]1CCc2nc(N3CCC(c4ncc(Cl)cn4)CC3)nc(NC3(CO)CCC3)c21 (centres unmarked) [Example 1.46, (1-{2-[4-(5-Chloro-pyrimidin-2-yl)-piperidin-1-yl]-5-oxo-6,7-dihydro-5H-5λ^4-thieno[3,2-d]pyrimidin-4-yl-amino}-cyclobutyl)-methanol] | 26.8% | 18.4% |
